# Experimental data reported in US6441195B1, “Substituted sulphonylamino(thio) carbonyl compounds” (Bayer Aktiengesellschaft, priority 1995, dated 2002).
# Legend:
# Assay type in all cases: in vivo
# Matricaria [1] = assay: Pre-emergence test/Greenhouse, Matricaria; conditions: after three weeks
# How it was run: (§1)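 Emulsifier-formulated compound applied by soil watering ~24 h after sowing; damage scored at three weeks as % of untreated control.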
# Ambrosia = assay: Pre-emergence test/Greenhouse, Ambrosia; conditions: after three weeks
# How it was run: as §1
# Lolium [2] = assay: Pre-emergence test/Greenhouse, Lolium; conditions: after three weeks
# How it was run: as §1
# Digitaria = assay: Post-emergence test/greenhouse, Digitaria; conditions: greenhouse, after three weeks
# Experimental: (§2) Solvent: 5 parts by weight of acetone
# (§3) Emulsifier: 1 part by weight of alkylaryl polyglycol ether
# (§4) To produce a suitable preparation of active compound, 1 part by weight of active compound is mixed with the stated amount of solvent, the stated amount of emulsifier is added and the concentrate is diluted with water to the desired concentration.
# (§5) Test plants which have a height of 5-15 cm are sprayed with the preparation of the active compound in such a way as to apply the particular amounts of active compound desired per unit area. The concentration of the spray liquor is chosen so that the particular amounts of active compound desired are applied in 2000 l of water/ha.
# (§6) After three weeks, the degree of damage to the plants is rated in % damage in comparison to the development of the untreated control.
# (§7) 0%=no action (like untreated control)
# Stellaria = assay: Post-emergence test/greenhouse, Stellaria; conditions: greenhouse, after three weeks
# Experimental: as §2, §3, §4, §5, §6, §7
# Sorghum [3] = assay: Post-emergence test/greenhouse, Sorghum; conditions: greenhouse, after three weeks
# Experimental: as §2, §3, §4, §5, §6, §7
# Maize [4] = assay: Pre-emergence test/Greenhouse, Maize
# How it was run: as §1
# Solanum = assay: Pre-emergence test/Greenhouse, Solanum; conditions: after three weeks
# How it was run: as §1
# Echinochloa = assay: Post-emergence test/greenhouse, Echinochloa; conditions: greenhouse, after three weeks
# Experimental: as §2, §3, §4, §5, §6, §7
# weeds [5] = assay: Post-emergence test (greenhouse), activity against weeds; conditions: in words
# Experimental: as §2, §3, §4, §5, §6, §7
# Poa = assay: Pre-emergence test/Greenhouse, Poa; conditions: after three weeks
# How it was run: as §1
# Matricaria [6] = assay: Post-emergence test/greenhouse, Matricaria; conditions: greenhouse, after three weeks
# Experimental: as §2, §3, §4, §5, §6, §7
# Amaranthus = assay: Post-emergence test/greenhouse, Amaranthus; conditions: greenhouse, after three weeks
# Experimental: as §2, §3, §4, §5, §6, §7
# weeds [7] = assay: Pre-emergence test (greenhouse), activity against weeds; conditions: in words
# How it was run: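 Three weeks after treatment, % damage relative to untreated plants is scored, 0% meaning no effect. Seeds in normal soil received, roughly one day post-sowing, an aqueous dilution of an acetone/emulsifier concentrate, with the rate per unit area, not concentration, being the relevant dose.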
# Maize [8] = assay: Post-emergence test/greenhouse, Maize; conditions: greenhouse, after three weeks
# Experimental: as §2, §3, §4, §5, §6, §7
# Lolium [9] = assay: Post-emergence test/greenhouse, Lolium; conditions: greenhouse, after three weeks
# Experimental: as §2, §3, §4, §5, §6, §7
# Sorghum [10] = assay: Pre-emergence test/Greenhouse, Sorghum; conditions: after three weeks
# How it was run: as §1
# Soya beans = assay: Pre-emergence test/Greenhouse, Soya beans; conditions: in vivo
# How it was run: as §1
# Gallium = assay: Post-emergence test/greenhouse, Gallium; conditions: greenhouse, after three weeks
# Experimental: as §2, §3, §4, §5, §6, §7
Structure (SMILES),"degree of damage to the plants (% damage vs untreated control), Matricaria (Matricaria [1]; 30 g of ai./ha) [%]","degree of damage to the plants (% damage vs untreated control), Ambrosia (Ambrosia; 30 g of ai./ha) [%]","degree of damage to the plants (% damage vs untreated control), Lolium (Lolium [2]; 30 g of ai./ha) [%]","degree of damage to the plants (% damage vs untreated control), Solanum (Solanum; 30 g of ai./ha) [%]",activity against weeds (weeds [5]),"degree of damage to the plants (% damage vs untreated control), Poa (Poa; 30 g of ai./ha) [%]",activity against weeds (weeds [7]),"degree of damage to the plants (% damage vs untreated control), Sorghum (Sorghum [10]; 30 g of ai./ha) [%]","degree of damage to the plants (% damage vs untreated control), Soya beans (Soya beans) [%]","degree of damage to the plants (% damage vs untreated control), Maize (Maize [4]; in vivo) [%]","degree of damage, Digitaria (Digitaria; 60 g of ai./ha) [%]","degree of damage, Stellaria (Stellaria; 60 g of ai./ha) [%]","degree of damage, Sorghum (Sorghum [3]; 60 g of ai./ha) [%]","degree of damage, Echinochloa (Echinochloa; 60 g of ai./ha) [%]","degree of damage, Matricaria (Matricaria [6]; 60 g of ai./ha) [%]","degree of damage, Amaranthus (Amaranthus; 60 g of ai./ha) [%]","degree of damage, Lolium (Lolium [9]; 60 g of ai./ha) [%]","degree of damage, Gallium (Gallium; 60 g of ai./ha) [%]",further results
"CCOc1nn(C(=O)NS(=O)(=O)c2c(C)csc2C(=O)OC)c(=O)n1C [Example 1, 5-ethoxy-4-methyl-2-(4-methyl-2-methoxycarbonyl-thien-3-yl-sulphonylaminocarbonyl)-2,4-dihydro-3H-1,2,4-triazol-3-one]",95,95,95,95,very strong activity against weeds,95,very strong activity against weeds,90,–,–,–,–,–,–,–,–,–,–,"degree of damage, Digitaria (Digitaria; 125 g of ai./ha): 95%; degree of damage, Stellaria (Stellaria; 125 g of ai./ha): 100%; degree of damage, Sorghum (Sorghum [3]; 125 g of ai./ha): 95%; degree of damage to the plants (% damage vs untreated control), Maize (Maize [4]; pre-emergence, 30 g of ai./ha, after three weeks): 10%; degree of damage, Echinochloa (Echinochloa; 125 g of ai./ha): 95%; degree of damage, Matricaria (Matricaria [6]; 125 g of ai./ha): 100%; degree of damage, Amaranthus (Amaranthus; 125 g of ai./ha): 100%; degree of damage, Maize (Maize [8]; 125 g of ai./ha): 60%; degree of damage, Lolium (Lolium [9]; 125 g of ai./ha): 90%"
CCc1nn(C(=O)NS(=O)(=O)c2c(C)csc2C(=O)OC)c(=O)n1C [Example 5],95,95,95,95,very strong activity against weeds,95,very strong activity against weeds,90,20,0,–,–,–,–,–,–,–,–,"degree of damage, Digitaria (Digitaria; 30 g of ai./ha): 95%; degree of damage, Stellaria (Stellaria; 30 g of ai./ha): 90%; degree of damage, Sorghum (Sorghum [3]; 30 g of ai./ha): 90%; degree of damage, Echinochloa (Echinochloa; 30 g of ai./ha): 80%; degree of damage, Matricaria (Matricaria [6]; 30 g of ai./ha): 95%; degree of damage, Amaranthus (Amaranthus; 30 g of ai./ha): 100%; degree of damage, Maize (Maize [8]; 30 g of ai./ha): 10%; degree of damage, Lolium (Lolium [9]; 30 g of ai./ha): 70%"
CCOn1c(CC)nn(C(=O)NS(=O)(=O)c2c(C)csc2C(=O)OC)c1=O [Example 38],–,–,–,–,very strong activity against weeds,–,very strong activity against weeds,–,–,0,70,95,95,90,95,100,–,–,"degree of damage to the plants (% damage vs untreated control), Matricaria (Matricaria [1]; 60 g of ai./ha): 95%; degree of damage to the plants (% damage vs untreated control), Ambrosia (Ambrosia; 60 g of ai./ha): 95%; degree of damage to the plants (% damage vs untreated control), Lolium (Lolium [2]; 60 g of ai./ha): 95%; degree of damage to the plants (% damage vs untreated control), Solanum (Solanum; 60 g of ai./ha): 95%; degree of damage to the plants (% damage vs untreated control), Poa (Poa; 60 g of ai./ha): 70%; degree of damage, Maize (Maize [8]; 60 g of ai./ha): 10%; degree of damage to the plants (% damage vs untreated control), Sorghum (Sorghum [10]; 60 g of ai./ha): 60%"
CCSc1nn(C(=O)NS(=O)(=O)c2c(C)cccc2C(=O)OC)c(=O)n1C [Example 141],–,–,–,–,very strong activity against weeds,–,very strong activity against weeds,–,0,30,–,–,–,–,–,–,–,–,"degree of damage to the plants (% damage vs untreated control), Matricaria (Matricaria [1]; 15 g of ai./ha): 80%; degree of damage to the plants (% damage vs untreated control), Ambrosia (Ambrosia; 15 g of ai./ha): 90%; degree of damage to the plants (% damage vs untreated control), Lolium (Lolium [2]; 15 g of ai./ha): 90%; degree of damage, Digitaria (Digitaria; 30 g of ai./ha): 70%; degree of damage, Stellaria (Stellaria; 30 g of ai./ha): 95%; degree of damage, Sorghum (Sorghum [3]; 30 g of ai./ha): 90%; degree of damage to the plants (% damage vs untreated control), Solanum (Solanum; 15 g of ai./ha): 90%; degree of damage, Echinochloa (Echinochloa; 30 g of ai./ha): 90%; degree of damage to the plants (% damage vs untreated control), Poa (Poa; 15 g of ai./ha): 80%; degree of damage, Matricaria (Matricaria [6]; 30 g of ai./ha): 70%; degree of damage, Amaranthus (Amaranthus; 30 g of ai./ha): 100%; degree of damage, Maize (Maize [8]; 30 g of ai./ha): 10%; degree of damage, Gallium (Gallium; 30 g of ai./ha): 90%; degree of damage to the plants (% damage vs untreated control), Sorghum (Sorghum [10]; 15 g of ai./ha): 80%"
CCSc1nn(C(=O)NS(=O)(=O)c2c(C)cccc2C(=O)OC)c(=O)n1C1CC1 [Example 159],95,95,90,95,very strong activity against weeds,95,very strong activity against weeds,60,–,10,60,100,70,80,100,95,60,95,–
COC(=O)c1cccc(C)c1S(=O)(=O)NC(=O)n1nc(OC)n(C2CC2)c1=O [Example 164],–,–,–,–,very strong activity against weeds,–,very strong activity against weeds,–,0,20,60,95,95,80,100,100,70,90,"degree of damage to the plants (% damage vs untreated control), Matricaria (Matricaria [1]; 8 g of ai./ha): 70%; degree of damage to the plants (% damage vs untreated control), Ambrosia (Ambrosia; 8 g of ai./ha): 100%; degree of damage to the plants (% damage vs untreated control), Lolium (Lolium [2]; 8 g of ai./ha): 95%; degree of damage to the plants (% damage vs untreated control), Solanum (Solanum; 8 g of ai./ha): 95%; degree of damage to the plants (% damage vs untreated control), Poa (Poa; 8 g of ai./ha): 95%; degree of damage to the plants (% damage vs untreated control), Sorghum (Sorghum [10]; 8 g of ai./ha): 90%"
CCCOc1nn(C(=O)NS(=O)(=O)c2c(C)cccc2C(=O)OC)c(=O)n1C1CC1 [Example 165],–,–,–,–,very strong activity against weeds,–,very strong activity against weeds,–,10,0,50,95,90,80,95,95,50,95,"degree of damage to the plants (% damage vs untreated control), Matricaria (Matricaria [1]; 8 g of ai./ha): 90%; degree of damage to the plants (% damage vs untreated control), Ambrosia (Ambrosia; 8 g of ai./ha): 80%; degree of damage to the plants (% damage vs untreated control), Solanum (Solanum; 8 g of ai./ha): 80%; degree of damage to the plants (% damage vs untreated control), Poa (Poa; 8 g of ai./ha): 90%; degree of damage to the plants (% damage vs untreated control), Sorghum (Sorghum [10]; 8 g of ai./ha): 70%"
COC(=O)c1cccc(C)c1S(=O)(=O)NC(=O)n1nc(OC(C)C)n(C2CC2)c1=O [Example 166],–,–,–,–,very strong activity against weeds,–,very strong activity against weeds,–,–,40,70,95,90,70,100,95,50,95,"degree of damage to the plants (% damage vs untreated control), Matricaria (Matricaria [1]; 15 g of ai./ha): 95%; degree of damage to the plants (% damage vs untreated control), Ambrosia (Ambrosia; 15 g of ai./ha): 80%; degree of damage to the plants (% damage vs untreated control), Lolium (Lolium [2]; 15 g of ai./ha): 90%; degree of damage to the plants (% damage vs untreated control), Solanum (Solanum; 15 g of ai./ha): 90%; degree of damage to the plants (% damage vs untreated control), Poa (Poa; 15 g of ai./ha): 90%; degree of damage to the plants (% damage vs untreated control), Sorghum (Sorghum [10]; 15 g of ai./ha): 70%"
